We go through 54 compounds from paper PMC6311893, “Computational prediction of plasma protein binding of cyclic peptides from small molecule experimental data using sparse modeling techniques” (BMC Bioinformatics, 2018).

Read-outs that look alike come from different tables or passages of the source. Positions of bridges follow the written chain, without caps; N, C: chain ends. Residues, ends and D or L forms follow the SMILES beside them.

One data set can be described thus: in vitro. The data set is classed as in vitro ADME. The conditions noted are these: human, plasma, Exp. PPB (fb*). The method, then:
As the number of publicly available data of cyclic peptide drugs is small compared to that of small molecule, we additionally designed and experimented with 16 cyclic peptides composed exclusively of natural amino acids. First, linear peptides were synthesized. Then, circularization was achieved by making a disulfide bond between N-terminal and C-terminal cysteine residues and confirmed by TOF/MS and HPLC analyses. Human PPB values fb were determined by the equilibrium dialysis method. Frozen human plasma was thawed immediately at room temperature. Then, the plasma was centrifuged at 3220 g for 10 min to remove clots and the supernatant was collected into a fresh tube. The working solutions of test compounds were prepared in DMSO at a concentration of 200 μM. Then, 3 μL of the working solution was removed for mixing with 597 μL of human plasma to achieve a final concentration of 1 μM (0.5% DMSO). The plasma samples were vortexed thoroughly. The dialysis membranes (HTD 96a/b Dialysis Membrane Strips MWCO 12-14 K, Cat. #1101, Batch# 1141 (12–17)) were soaked in ultrapure water for 60 min to separate the strips, then in 20% ethanol for 20 min, and finally in the dialysis buffer (100 mM sodium phosphate and 150 mM NaCl) for 20 min. The dialysis apparatus was assembled according to the manufacturer’s instructions. Each cell was filled with the spiked plasma sample and dialyzed against equal volume of the dialysis buffer. The assay was performed in duplicate. The dialysis plate was sealed and incubated in an incubator at 37 °C with 5% CO2 at 100 rpm for 6 h. At the end of incubation, the seal was removed and 50 μL of samples from both buffer and plasma chambers were transferred to wells of a 96-well plate. 50 μL of blank plasma was added to each buffer sample and an equal volume of phosphate buffered saline was supplemented to the collected plasma sample. […] Samples in the plate were vortexed for 5 min and centrifuged at 3220 g for 30 min at 4 °C. Then, the supernatant was transferred to a new 96-well plate with 100 μL or 200 μL water (depending on the LC-MS signal response and peak shape) for LC-MS/MS analysis.

Data set [1] has as its system plasma protein. The conditions noted are these: cited from earlier work.
Data set [2] deals with plasma protein. The conditions noted are these: cited from earlier work. The source holds these as a separate data set.
[3] abbreviates: fraction bound (0-1), public cyclic peptide drug dataset, ref DrugBank [39].
Where [4] appears, read: fraction bound to plasma protein, small molecule dataset, sheet 1-SM (Set Dte = test, Dtr = training), ref Ingle et al.
Setting [5] is: fraction bound to plasma protein, small molecule dataset, sheet 1-SM, ref Ingle et al.
The mark [6] stands for this setting: fraction bound to plasma protein, small molecule dataset, sheet 1-SM, Set Dtr, ref Ingle et al.

As for `NC(=O)CC[C@@H]1NC(=O)[C@H](Cc2c[nH]c3ccccc23)NC(=O)[C@@H]2CCCN2C(=O)[C@H](CCC(N)=O)NC(=O)[C@H](CC(N)=O)NC(=O)[C@@H](N)CSSC[C@@H](C(=O)O)NC1=O` [Pep.11] (H-CNQPWQC-OH; disulfide 1-7; N-terminus and C-terminus assumed), the fraction unbound at 6 h, 1 μM in “in vitro” was found to be 1. As to Oxytocin [reference compound], the “PPB (fb)” value in the data set with plasma protein [1] (plasma) is reported as 0; with plasma protein [2], 0.3. For Quinupristin [reference compound], the “PPB (fb)” value in the data set with plasma protein [1] (plasma) is on record as 0.66; in the data set with plasma protein [2] it was 0.55-0.78. On to Micafungin [reference compound], for which the “PPB (fb)” value in the data set with plasma protein [1] (plasma) was 1; with plasma protein [2] (setting [3]), 0.99. In the case of Daptomycin, the “PPB (fb)” value in the data set on plasma protein [2] (setting [3]) is listed as 0.85.

Regarding Polymyxin?B, the “PPB (fb)” value in the data set with plasma protein [2] (setting [3]) was 0.559.

In “in vitro”, `CC(C)C[C@@H]1NC(=O)[C@H](Cc2c[nH]c3ccccc23)NC(=O)[C@H](CC(=O)O)NC(=O)[C@H](CC(=O)O)NC(=O)[C@H](Cc2ccccc2)NC(=O)[C@H](CO)NC(=O)[C@@H](N)CSSC[C@@H](C(=O)O)NC(=O)[C@H](C)NC1=O` [Pep.12] (H-CSFDDWLAC-OH; disulfide 1-9; N-terminus and C-terminus assumed) gave a fraction unbound at 6 h, 1 μM of 0.2. Eptifibatide [reference compound]: the “PPB (fb)” value in the data set on plasma protein [1] (plasma) and in the data set on plasma protein [2] was 0.25 throughout. Consider Vancomycin [reference compound], for which the “PPB (fb)” value in the data set with plasma protein [1] (plasma) was 0.37; in the data set on plasma protein [2] (setting [3]) it was 0.55. As for `CC(C)[C@@H]1NC(=O)[C@H](C)NC(=O)[C@H](CO)NC(=O)[C@H](Cc2ccc(O)cc2)NC(=O)[C@H](C(C)C)NC(=O)[C@H](Cc2ccccc2)NC(=O)[C@@H](N)CSSC[C@@H](C(=O)O)NC1=O` [Pep.15] (H-CFVYSAVC-OH; disulfide 1-8; N-terminus and C-terminus assumed), in the data set “in vitro”, the fraction unbound at 6 h, 1 μM is 0.847.

Consider Vasopressin, for which the “PPB (fb)” value in the data set on plasma protein [2] (setting [3]) is 0.01.

As for `C[C@@H](O)[C@@H]1NC(=O)[C@H](CCCCN)NC(=O)[C@H](Cc2c[nH]c3ccccc23)NC(=O)[C@H](Cc2ccccc2)NC(=O)[C@H](Cc2ccccc2)NC(=O)[C@@H](N)CSSC[C@@H](C(=O)O)NC(=O)[C@H]([C@@H](C)O)NC1=O` [Pep.6] (H-CFFWKTTC-OH; disulfide 1-8; N-terminus and C-terminus assumed), the fraction unbound at 6 h, 1 μM in the data set “in vitro” is 0.737. Still for that read-out and setting: the value for `CC[C@H](C)[C@@H]1NC(=O)[C@H](CCCNC(=N)N)NC(=O)[C@@H](N)CSSC[C@@H](C(=O)O)NC(=O)[C@H](Cc2ccc(O)cc2)NC(=O)[C@H](CCCNC(=N)N)NC(=O)[C@H](CCCCN)NC1=O` [Pep.16] (H-CRIKRYC-OH; disulfide 1-7; N-terminus and C-terminus assumed) was 0.849.

In the case of Caspofungin, the “PPB (fb)” value with plasma protein [2] (setting [3]) is recorded as 0.97.

Take `CC(C)[C@@H]1NC(=O)[C@H](Cc2c[nH]c3ccccc23)NC(=O)[C@@H](N)CSSC[C@@H](C(=O)O)NC(=O)[C@H](CCC(=O)O)NC(=O)[C@H](Cc2ccccc2)NC(=O)[C@H](CCC(N)=O)NC(=O)[C@@H]2CCCN2C(=O)[C@H](Cc2c[nH]cn2)NC1=O` [Pep.10] (H-CWVHPQFEC-OH; disulfide 1-9; N-terminus and C-terminus assumed): the fraction unbound at 6 h, 1 μM in the data set “in vitro” is 0.633.

As to Terlipressin, the “PPB (fb)” value in the data set with plasma protein [2] is on record as 0.3. Regarding Teixobactin, the “PPB (fb)” value in the data set with plasma protein [2] is reported as 0.84. As to `CC(C)[C@@H]1NC(=O)[C@H](CCCNC(=N)N)NC(=O)[C@@H]2CCCN2C(=O)[C@H](CCCNC(=N)N)NC(=O)[C@H](Cc2c[nH]c3ccccc23)NC(=O)[C@@H](N)CSSC[C@@H](C(=O)O)NC(=O)[C@H](CCCNC(=N)N)NC(=O)[C@H](C)NC1=O` [Pep.5] (H-CWRPRVARC-OH; disulfide 1-9; N-terminus and C-terminus assumed), in “in vitro”, the fraction unbound at 6 h, 1 μM came out at 1.

With `NCCCC[C@@H]1NC(=O)[C@H](Cc2c[nH]c3ccccc23)NC(=O)[C@H](Cc2ccccc2)NC(=O)[C@@H]2CCCN2C(=O)[C@H](Cc2ccccc2)NC(=O)[C@@H](N)CSSC[C@@H](C(=O)O)NC(=O)[C@H](Cc2ccc(O)cc2)NC1=O` [Pep.4] (H-CFPFWKYC-OH; disulfide 1-8; N-terminus and C-terminus assumed), the fraction unbound at 6 h, 1 μM in “in vitro” was 0.384. The same measure, in the same setting: the value for `CC(C)C[C@@H]1NC(=O)[C@H](CC(C)C)NC(=O)[C@H](CCCCN)NC(=O)[C@@H](N)CSSC[C@@H](C(=O)O)NC(=O)[C@H]([C@@H](C)O)NC(=O)[C@H](CCCCN)NC(=O)[C@H](CCCCN)NC1=O` [Pep.7] (H-CKLLKKTC-OH; disulfide 1-8; N-terminus and C-terminus assumed) was 1.

For Telavancin, the “PPB (fb)” value in the data set on plasma protein [2] (setting [3]) is recorded as 0.897. On to Pasireotide, for which the “PPB (fb)” value in the data set on plasma protein [2] (setting [3]) was 0.88. Dactinomycin: the “PPB (fb)” value in the data set on plasma protein [2] (setting [3]) is reported as 0.05. For Lanreotide, the “PPB (fb)” value in the data set on plasma protein [2] (setting [3]) is 0.79-0.83. Regarding Dalbavancin, the “PPB (fb)” value with plasma protein [2] is on record as 0.93. For the compound Acetyl-Daptomycin, in the data set on plasma protein [2] (setting [3]), the “PPB (fb)” value is on record as 0.12. In the case of Romidepsin, the “PPB (fb)” value with plasma protein [2] (setting [3]) is 0.92-0.94. As for Oritavancin, in the data set on plasma protein [2] (setting [3]), the “PPB (fb)” value is recorded as 0.85.

On to `CN1CCC(=C2c3ccccc3CCc3sccc32)CC1` [pizotyline], for which the “PPB (fb)” value with plasma protein [1] (setting [4]) is listed as 0.91. Consider `O=C(C1CCCCC1)N1CC(=O)N2CCc3ccccc3C2C1` (stereo not drawn) [praziquantel], for which the “PPB (fb)” value in the data set on plasma protein [1] (setting [5]) is given as 0.83. In the case of `CC(C)(C)NC[C@H](O)COc1nsnc1N1CCOCC1` [Timolol], the “PPB (fb)” value in the data set on plasma protein [1] (setting [5]) is listed as 0.1. Consider Desmopressin, for which the “PPB (fb)” value in the data set on plasma protein [2] (setting [3]) was 0.5. On to `CCCN(CCC)CCc1cccc2c1CC(=O)N2` [ropinirole], for which the “PPB (fb)” value in the data set with plasma protein [1] (plasma) is 0.4. Take `C=C(Br)CC1(C(C)C)C(=O)NC(=O)NC1=O` [ibomal]: the “PPB (fb)” value in the data set with plasma protein [1] (plasma) is listed as 0.34. On to `O=C(O)c1cc(/N=N/c2ccc(O)c(C(=O)O)c2)ccc1O` [olsalazine], for which the “PPB (fb)” value in the data set on plasma protein [1] (setting [5]) is recorded as 0.99. As to `C=CCc1ccccc1OCC(O)CNC(C)C` (stereo not drawn) [Alprenolol], the “PPB (fb)” value in the data set on plasma protein [1] (setting [6]) is 0.81. On to `COc1ccc(C(CN(C)C)C2(O)CCCCC2)cc1` (stereo not drawn) [Venlafaxine], for which the “PPB (fb)” value in the data set on plasma protein [1] (plasma) is listed as 0.27. Take `CC1(C)SC2C(NC(=O)c3ccccc3)C(=O)N2C1C(=O)O` (stereo not drawn) [penicillin14]: the “PPB (fb)” value in the data set with plasma protein [1] (setting [5]) is 0.87. Consider `Cc1cccc(C)c1OCC(=O)N[C@@H](Cc1ccccc1)[C@@H](O)C[C@H](Cc1ccccc1)NC(=O)[C@H](C(C)C)N1CCCNC1=O` [lopinavir], for which the “PPB (fb)” value in the data set with plasma protein [1] (setting [4]) was 0.99. Turning to `N[C@@H](C(=O)N[C@@H]1C(=O)N2C(C(=O)O)=C(Cl)CS[C@H]12)c1ccccc1` [cefaclor], the “PPB (fb)” value in the data set with plasma protein [1] (setting [4]) is reported as 0.25.

As to Anidulafungin [reference compound], the results for the “PPB (fb)” value in the data set with plasma protein [1] (plasma) and with plasma protein [2] (setting [3]) were 0.84 and 0.99, respectively.

As to trichloroethanol, in the data set with plasma protein [1] (plasma), the “PPB (fb)” value is given as 0.35. In the case of `Cc1ccc(NC(=O)c2ccc(CN3CCNCC3)cc2)cc1Nc1nccc(-c2cccnc2)n1` [N-desmethyl-imatinib], the “PPB (fb)” value with plasma protein [1] (setting [4]) is reported as 0.7. As for `CC(=O)Oc1ccc2c3c1OC1C(OC(C)=O)C=CC4C(C2)N(C)CCC341` (stereo not drawn) [diamorphine], the “PPB (fb)” value in the data set with plasma protein [1] (plasma) is 0. For the compound `Cc1c(Cl)cccc1Nc1ccccc1C(=O)O` [tolfenamic acid], the “PPB (fb)” value in the data set on plasma protein [1] (setting [6]) is recorded as 0.99. Regarding `CN(C)CCC=C1c2ccccc2COc2ccccc21` [Doxepin], the “PPB (fb)” value in the data set on plasma protein [1] (setting [6]) is 0.81. For `C=C[C@H]1C[N@@]2CC[C@H]1C[C@@H]2[C@@H](O)c1ccnc2ccc(OC)cc12` [Quinidine], the “PPB (fb)” value in the data set with plasma protein [1] (setting [4]) is 0.74. Consider `C=CCOc1ccc(CC(=O)O)cc1Cl` [alclofenac], for which, in the data set on plasma protein [1] (setting [4]), the “PPB (fb)” value is on record as 0.99.

Consider Colistin, for which the “PPB (fb)” value with plasma protein [2] (setting [3]) is recorded as 0.904-0.929. `Cc1ccc(N(CC2=NCCN2)c2cccc(O)c2)cc1` [phentolamine]: in the data set on plasma protein [1] (setting [5]), the “PPB (fb)” value is 0.54. Turning to `O=C1CC[C@@]2(O)[C@H]3Cc4ccc(O)c5c4[C@@]2(CCN3CC2CC2)[C@H]1O5` [Naltrexone], in the data set on plasma protein [1] (setting [6]), the “PPB (fb)” value is listed as 0.2.

As to `CC(=O)NC(CS)C(=O)O` (stereo not drawn) [Acetylcysteine__ N-], in the data set with plasma protein [1] (setting [6]), the “PPB (fb)” value was 0.83. Take `O=C(O)c1cn(-c2ccc(O)cc2)c2cc(N3CCNCC3)c(F)cc2c1=O` [8c(p-OH)]: the “PPB (fb)” value with plasma protein [1] (setting [4]) is recorded as 0.35.

Regarding `O=P1(N(CCCl)CCCl)NCCCO1` (stereo not drawn) [Cyclophosphamide], in the data set on plasma protein [1] (plasma), the “PPB (fb)” value is recorded as 0.15.
